These results are taken from publication PMC3748076 (2013).

Experiment [1] deals with WT 39-mer Bcl-2 promoter sequence G-quadruplex (39Bcl-2) (DNA, G4) AGGGGCGGGCGCGGGAGGAAGGGGGCGGGAGCGGGGCTG
In words: ESI-MS. The following applies: 50 mM ammonium acetate, 20% methanol, pH about 7, 80 µM DNA, 320 µM porphyrin.

The test system is the same in experiment [2]. In words: ITC. The following applies: 130 mM KCl, 20 mM potassium phosphate, 2 mM K4EDTA, pH 7.0, 25 °C.

Take `C[n+]1ccc(-c2c3nc(c(-c4cc[n+](C)cc4)c4ccc([nH]4)c(-c4cc[n+](C)cc4)c4nc(c(-c5cc[n+](C)cc5)c5ccc2[nH]5)C=C4)C=C3)cc1`: in experiment [1] (no free DNA seen), the binding result was “yes”. In addition, in experiment [2] (site 1 of 2 (two equivalent sites per mode)), the K1 is on record as 37.0 ± 4.0 × 10^5.
Take `C[n+]1cccc(-c2c3nc(c(-c4ccc[n+](C)c4)c4ccc([nH]4)c(-c4ccc[n+](C)c4)c4nc(c(-c5ccc[n+](C)c5)c5ccc2[nH]5)C=C4)C=C3)c1`: in experiment [1] (some free DNA seen), the binding result was “yes”. Besides, the K1 in experiment [2] (two equivalent sites) is 2.6 ± 0.5 × 10^5.
In the same order, the values of `C[n+]1ccccc1-c1c2nc(c(-c3cccc[n+]3C)c3ccc([nH]3)c(-c3cccc[n+]3C)c3nc(c(-c4cccc[n+]4C)c4ccc1[nH]4)C=C3)C=C2` are “yes” and 0.7 ± 0.5 × 10^5.
